Laboratory results as given in EP2387997A1, “Use of dronedarone for the preparation of a medicament for the prevention of cardiovascular events in patients who developed permanent atrial fibrillation throughout the period the dronedarone is administered” (SANOFI, priority 2010, dated 2011).
Where a name gives a salt, the structure may show the parent alone. Read-outs that look alike come from different tables or passages of the source.

Legend:
[1] = system: patients with persistent atrial fibrillation; settings: cited from earlier work; for effectiveness in increasing the time to a recurrence of atrial fibrillation relative to sotalol / increasing the time to a recurrence of atrial fibrillation: P<0.001; for number of strokes per 100 patient-years of follow-up: persistent atrial fibrillation, placebo 1.91, calculated from the article of Singh et al, page 1866; for increasing the time to a recurrence of atrial fibrillation: versus placebo
stroke = settings: ATHENA trial; cited from earlier work
[2] = system: patients who developed permanent atrial fibrillation/flutter; assay: prospective, multinational, double-blind, randomized, multi-center, placebo-controlled, parallel group trial of dronedarone hydrochloride; format: in vivo
Method: • Patients in permanent atrial fibrillation • Patients in unstable hemodynamic condition such as acute pulmonary edema within 12 hours prior to start of study medication; cardiogenic shock; treatment with IV pressor agents; patients on respirator; congestive heart failure of stage NYHA IV within the last 4 weeks; uncorrected, hemodynamically significant primary obstructive valvular disease; hemodynamically significant obstructive cardomyopathy; a cardiac operation or revascularization procedure within 4 weeks preceding randomization • Planned major non-cardiac or cardiac surgery or procedures including surgery for valvular heart disease, coronary artery bypass graft (CABG), percutaneous coronary intervention (PCI), or on urgent cardiac transplantation list • Acute myocarditis or constrictive pericarditis • Bradycardia < 50 bpm and/or PR-interval ≥ 0.28 sec on the last 12-lead ECG. • Significant sinus node disease (documented pause of 3 seconds or more) or 2nd or 3rd degree atrioventricular block (AV-block) unless treated with a pacemaker.

SMILES: CCCCc1oc2ccccc2c1C(=O)c1cc(I)c(OCCN(CC)CC)c(I)c1 [amiodarone]
- effectiveness in increasing the time to a recurrence of atrial fibrillation relative to sotalol ([1]; analysis according to the treatment actually received): four times as effective
- effectiveness in increasing the time to a recurrence of atrial fibrillation relative to sotalol ([1]; intention-to-treat analysis): six times as effective as sotalol
- number of strokes per 100 patient-years of follow-up [1]: 2.06 per 100 patient-years
- increasing the time to a recurrence of atrial fibrillation [1]: significantly more effective than placebo

SMILES: CC(C)NCC(O)c1ccc(NS(C)(=O)=O)cc1 (centres unmarked) [sotalol]
- number of strokes per 100 patient-years of follow-up [1]: 2.71 per 100 patient-years
- increasing the time to a recurrence of atrial fibrillation [1]: significantly more effective than placebo

SMILES: CCCCc1oc2ccc(NS(C)(=O)=O)cc2c1C(=O)c1ccc(OCCCN(CCCC)CCCC)cc1 [dronedarone, 2-n-butyl-3-[4-(3-di-n-butylaminopropoxy)benzoyl]-5-methylsulfonamido-benzofuranne]
- incidence of stroke (stroke): ability to reduce the incidence of stroke

SMILES: CCCCc1oc2ccc(NS(C)(=O)=O)cc2c1C(=O)c1ccc(OCCCN(CCCC)CCCC)cc1 [dronedarone hydrochloride]
- events (stroke, Acute Coronary Syndrome (ACS) or cardiovascular death) ([2]; among the 178 patients who developed permanent atrial fibrillation/flutter on dronedarone hydrochloride, placebo group 24 events (295 patients)): 12 events
- Calculated relative risk of stroke, Acute Coronary Syndrome (ACS) or cardiovascular death ([2]; dronedarone versus placebo, Cox's proportional hazard model, patients who developed permanent atrial fibrillation/flutter): 0.805
- patients developed permanent atrial fibrillation/flutter ([2]; of 2301 patients treated with dronedarone hydrochloride (400 mg of base, one tablet morning and evening, 12 to 30 months), placebo group 295): 178 patients
- decrease of the relative risk of stroke, Acute Coronary Syndrome (ACS) or cardiovascular death ([2]; x = 1-RR, versus placebo, patients who developed permanent atrial fibrillation/flutter): 20%
